Source: US11214565B2, “Compound, compositions, and methods” (Denali Therapeutics Inc., priority 2015, dated 2022)

Molecular target: LRRK2 G2019S enzyme (Homo sapiens (Human), UniProt Q5S007, G2019S)
Assay: LRRK2 G2019S TR-FRET biochemical kinase assay (LRRKtide substrate)
Conditions: Table A-2; 5 nM LRRK2, 134 μM ATP, 60 minute reaction, 23° C.
Procedure: LRRK2 G2019S enzyme, Substrate (LRRKtide), ATP, TR-FRET dilution buffer, pLRRKtide antibody, 384-well assay plate, and DMSO.
50 mM Tris pH 7.5, 10 mM MgCl2, 1 mM EGTA, 0.01% Brij-35, 2 mM DTT, 5 nM LRRK2, 134 μM ATP, 60 minute reaction time, 23° C. reaction temperature, and 10 μL total reaction volume.
1×TR-FRET dilution buffer, 10 mM EDTA, 2 nM antibody, 23° C. reaction temperature, and 10 μL total reaction volume.
Compound solutions were prepared by initially diluting to 1 mM with DMSO. 35 μL of reference compound solution, 35 μL of test compound solution, and 35 μL HPE were successively added to the source plate (384-well assay plate, Labcyte). The plates were centrifuged at 2500 rpm for 1 minute and sealed in foil. POD was used to perform a 3.162 fold serial dilution and 100 nL of reference compound solution, test compound solution, HPE and ZPE were transferred to assay plates. The assay plate was centrifuged at 2500 rpm for 1 minute, and sealed with foil.
To perform the enzyme reaction, 5 μL of LRRKtide substrate and kinase mixture in assay buffer was added to all wells of the assay plate. The plate was centrifuged to concentrate the mixture at the bottom of the wells. The assay plate was incubated at 23° C. for 20 minutes. Following incubation, 5 μL of 2×ATP in assay buffer was added to each well, and plates were centrifuged to concentrate the mixture at the bottom of the wells. The plate was incubated at 23° C. for 60 minutes.
To perform the detection of the reaction, EDTA completely mixed in TR-FRET dilution buffer was added to antibody reagent. 10 μL of detection reagent was added to all wells of each well of the assay-plate and the plate was centrifuged to concentrate the mixture at the bottom of the wells. The plate was then incubated at 23° C. for 60 minutes. Plates were read on Perkin Elmer Envision 2104 instrument in TR-FRET mode using a 340 nm excitation filter, 520 nm fluorescence emission filter, and 490 or 495 nm terbium emission filter.
B-2, C2, and D-4 respectively.

Chain of LRRK2 G2019S enzyme (Q5S007 whole entry G2019S): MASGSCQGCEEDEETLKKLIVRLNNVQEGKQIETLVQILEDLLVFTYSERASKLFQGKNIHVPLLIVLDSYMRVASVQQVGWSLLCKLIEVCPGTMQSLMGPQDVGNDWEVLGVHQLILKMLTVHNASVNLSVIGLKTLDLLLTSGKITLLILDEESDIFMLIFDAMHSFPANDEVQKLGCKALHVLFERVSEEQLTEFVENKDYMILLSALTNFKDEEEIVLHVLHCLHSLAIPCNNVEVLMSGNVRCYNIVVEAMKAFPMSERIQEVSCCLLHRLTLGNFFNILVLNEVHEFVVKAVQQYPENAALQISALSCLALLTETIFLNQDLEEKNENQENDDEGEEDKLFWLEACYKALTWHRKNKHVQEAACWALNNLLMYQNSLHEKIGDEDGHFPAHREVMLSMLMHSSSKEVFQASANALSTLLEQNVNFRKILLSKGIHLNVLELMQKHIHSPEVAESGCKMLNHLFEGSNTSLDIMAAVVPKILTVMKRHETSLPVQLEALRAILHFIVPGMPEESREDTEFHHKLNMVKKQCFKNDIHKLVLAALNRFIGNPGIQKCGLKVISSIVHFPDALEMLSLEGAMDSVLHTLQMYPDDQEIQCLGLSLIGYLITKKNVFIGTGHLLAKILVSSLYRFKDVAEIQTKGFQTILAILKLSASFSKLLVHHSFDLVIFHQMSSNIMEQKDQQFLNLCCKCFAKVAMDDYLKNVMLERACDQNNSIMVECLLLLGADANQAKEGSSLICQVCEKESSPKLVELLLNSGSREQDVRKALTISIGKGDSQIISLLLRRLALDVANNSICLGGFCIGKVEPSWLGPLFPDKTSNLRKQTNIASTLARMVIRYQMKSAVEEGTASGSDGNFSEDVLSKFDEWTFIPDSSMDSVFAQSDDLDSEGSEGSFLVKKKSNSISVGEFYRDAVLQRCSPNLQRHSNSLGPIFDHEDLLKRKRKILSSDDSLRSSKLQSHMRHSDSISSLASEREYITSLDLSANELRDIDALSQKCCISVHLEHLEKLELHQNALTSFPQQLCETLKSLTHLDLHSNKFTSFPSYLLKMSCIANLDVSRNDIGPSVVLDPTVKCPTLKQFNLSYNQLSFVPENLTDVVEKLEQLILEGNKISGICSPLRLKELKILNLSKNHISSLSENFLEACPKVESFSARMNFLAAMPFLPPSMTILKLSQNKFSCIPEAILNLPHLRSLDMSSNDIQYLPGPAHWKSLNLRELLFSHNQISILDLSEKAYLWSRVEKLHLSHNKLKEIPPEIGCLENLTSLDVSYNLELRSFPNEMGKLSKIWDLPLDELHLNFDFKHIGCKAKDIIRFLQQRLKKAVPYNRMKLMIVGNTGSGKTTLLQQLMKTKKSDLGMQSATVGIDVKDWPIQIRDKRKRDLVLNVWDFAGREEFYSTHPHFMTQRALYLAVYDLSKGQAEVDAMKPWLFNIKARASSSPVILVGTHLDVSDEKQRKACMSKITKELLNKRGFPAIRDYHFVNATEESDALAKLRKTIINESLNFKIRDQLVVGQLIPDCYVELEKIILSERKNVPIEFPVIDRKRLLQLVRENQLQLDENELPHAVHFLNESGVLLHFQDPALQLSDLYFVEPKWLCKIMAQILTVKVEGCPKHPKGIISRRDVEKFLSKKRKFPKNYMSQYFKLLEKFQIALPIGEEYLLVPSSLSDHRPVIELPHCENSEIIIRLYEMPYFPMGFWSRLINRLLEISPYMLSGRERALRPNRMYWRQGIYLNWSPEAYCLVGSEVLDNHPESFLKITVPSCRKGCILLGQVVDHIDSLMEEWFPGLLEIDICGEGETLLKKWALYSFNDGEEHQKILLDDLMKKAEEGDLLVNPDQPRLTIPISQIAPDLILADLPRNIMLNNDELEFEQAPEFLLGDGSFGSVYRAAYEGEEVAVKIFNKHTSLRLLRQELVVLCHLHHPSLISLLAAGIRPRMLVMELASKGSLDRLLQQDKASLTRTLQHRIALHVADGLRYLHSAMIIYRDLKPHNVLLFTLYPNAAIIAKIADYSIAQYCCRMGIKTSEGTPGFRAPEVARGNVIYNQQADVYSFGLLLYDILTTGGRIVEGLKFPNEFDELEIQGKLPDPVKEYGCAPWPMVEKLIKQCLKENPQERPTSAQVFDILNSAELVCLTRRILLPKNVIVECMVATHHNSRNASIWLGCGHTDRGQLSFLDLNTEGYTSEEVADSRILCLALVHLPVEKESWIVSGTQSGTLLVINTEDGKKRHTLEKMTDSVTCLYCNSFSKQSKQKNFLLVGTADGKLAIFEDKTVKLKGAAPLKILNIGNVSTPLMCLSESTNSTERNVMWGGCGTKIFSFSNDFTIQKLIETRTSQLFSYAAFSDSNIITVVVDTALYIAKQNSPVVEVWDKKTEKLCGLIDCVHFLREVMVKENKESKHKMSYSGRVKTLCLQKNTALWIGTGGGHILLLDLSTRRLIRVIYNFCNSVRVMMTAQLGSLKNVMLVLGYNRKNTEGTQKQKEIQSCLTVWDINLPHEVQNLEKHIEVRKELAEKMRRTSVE

SMILES | IC50 [nM]
Cc1nn(C(C)(C)C#N)cc1Nc1ncc(C(F)(F)F)c([C@@H]2C[C@H]2F)n1 (single isomer, unassigned) [Compound A-12, 2-(4-((4-(2-fluorocyclopropyl)-5-(trifluoromethyl)pyrimidin-2-yl)amino)-3-methyl-1H-pyrazol-1-yl)-2-methylpropanenitrile] | > 60
Cc1nn(C(C)(C)C#N)cc1Nc1ncc(C(F)(F)F)c([C@H]2C[C@@H]2F)n1 (single isomer, unassigned) [Compound A-13, 2-(4-((4-(2-fluorocyclopropyl)-5-(trifluoromethyl)pyrimidin-2-yl)amino)-3-methyl-1H-pyrazol-1-yl)-2-methylpropanenitrile] | > 60
CC1(O)CCCC1n1ncc(Nc2ncc(C(F)(F)F)c(C3CC3)n2)c1Cl (single isomer, unassigned) [Compound A-49, 2-(5-chloro-4-((4-cyclopropyl-5-(trifluoromethyl)pyrimidin-2-yl)amino)-1H-pyrazol-1-yl)-1-methylcyclopentanol] | > 60
CCN1CC(n2cc(Nc3ncc(C(F)(F)F)c(C4CC4)n3)c(C)n2)CCC1=O (single isomer, unassigned) [Compound A-62] | > 60
Cc1nn([C@@H]2CCn3ccnc32)cc1Nc1ncc(C(F)(F)F)c(C2CC2)n1 (single isomer, unassigned) [Compound A-78] | > 60
Cc1nn(C(C)(C)C#N)cc1Nc1ncc(C#N)c(C2CC2)n1 [Compound A-3, 2-[[1-(1-cyano-1-methyl-ethyl)-3-methyl-pyrazol-4-yl]amino]-4-cyclopropyl-pyrimidine-5-carbonitrile] | > 60
Cc1nn(C(C)(C)C#N)cc1Nc1ncc(C(F)(F)F)c(C2=CCCC2)n1 [Compound A-4, 2-[4-[[4-(cyclopenten-1-yl)-5-(trifluoromethyl)pyrimidin-2-yl]amino]-3-methyl-pyrazol-1-yl]-2-methyl-propanenitrile] | 30 to 60
Cn1nc(C(C)(C)C#N)cc1Nc1ncc(C(F)(F)F)c(C2CC2)n1 [Compound A-5, 2-(5-((4-cyclopropyl-5-(trifluoromethyl)pyrimidin-2-yl)amino)-1-methyl-1H-pyrazol-3-yl)-2-methylpropanenitrile] | 30 to 60
Cc1nn(C(C)(C)C#N)cc1Nc1ncc(C(F)(F)F)c(-c2cnn(C)c2)n1 [Compound A-9, 2-methyl-2-(3-methyl-4-((4-(1-methyl-1H-pyrazol-4-yl)-5-(trifluoromethyl)pyrimidin-2-yl)amino)-1H-pyrazol-1-yl)propanenitrile] | 30 to 60
Cc1nn(C(C)(C)C#N)cc1Nc1ncc(C(F)(F)F)c(C2CCCC2)n1 [Compound A-10, 2-[4-[[4-cyclopentyl-5-(trifluoromethyl)pyrimidin-2-yl]amino]-3-methyl-pyrazol-1-yl]-2-methyl-propanenitrile] | > 60
Cc1nn(C(C)(C)C#N)cc1Nc1ncc(C(F)(F)F)c(C2CCC2)n1 [Compound A-11, 2-[4-[[4-cyclobutyl-5-(trifluoromethyl)pyrimidin-2-yl]amino]-3-methyl-pyrazol-1-yl]-2-methyl-propanenitrile] | 30 to 60

More lines, now with the values ahead:

IC50 [nM] | SMILES
< 30 | CC1(O)CCCC1n1ncc(Nc2ncc(C(F)(F)F)c(C3CC3)n2)c1Cl (single isomer, unassigned) [Compound A-50, 2-(5-chloro-4-((4-cyclopropyl-5-(trifluoromethyl)pyrimidin-2-yl)amino)-1H-pyrazol-1-yl)-1-methylcyclopentanol]
< 30 | CCN1CC(n2ncc(Nc3ncc(C(F)(F)F)c(C4CC4)n3)c2C)CCC1=O (single isomer, unassigned) [Compound A-59]
< 30 | CCN1CC(n2ncc(Nc3ncc(C(F)(F)F)c(C4CC4)n3)c2C)CCC1=O (single isomer, unassigned) [Compound A-60]
30 to 60 | CCN1CC(n2cc(Nc3ncc(C(F)(F)F)c(C4CC4)n3)c(C)n2)CCC1=O (single isomer, unassigned) [Compound A-61]
30 to 60 | FC(F)(F)c1cnc(Nc2cnn([C@H]3CN(C4COC4)CCC3(F)F)c2Cl)nc1C1CC1 (single isomer, unassigned) [Compound A-64, N-(5-chloro-1-(4,4-difluoro-1-(oxetan-3-yl)piperidin-3-yl)-1H-pyrazol-4-yl)-4-cyclopropyl-5-(trifluoromethyl)pyrimidin-2-amine]
< 30 | FC(F)(F)c1cnc(Nc2cnn([C@@H]3CN(C4COC4)CCC3(F)F)c2Cl)nc1C1CC1 (single isomer, unassigned) [Compound A-65, N-(5-chloro-1-(4,4-difluoro-1-(oxetan-3-yl)piperidin-3-yl)-1H-pyrazol-4-yl)-4-cyclopropyl-5-(trifluoromethyl)pyrimidin-2-amine]
< 30 | Cc1nn([C@H]2CCn3ccnc32)cc1Nc1ncc(C(F)(F)F)c(C2CC2)n1 (single isomer, unassigned) [Compound A-79]
< 30 | Cc1nn([C@@H]2CCn3cnnc32)cc1Nc1ncc(C(F)(F)F)c(C2CC2)n1 (single isomer, unassigned) [Compound A-82]
< 30 | Cc1nn([C@H]2CCn3cnnc32)cc1Nc1ncc(C(F)(F)F)c(C2CC2)n1 (single isomer, unassigned) [Compound A-83]
< 30 | Cc1nn(C(C)(C)C#N)cc1Nc1ncc(C(F)(F)F)c(C2CC2)n1 [Compound A-1, 2-[4-[(5-trifluoromethyl-4-cyclopropyl-pyrimidin-2-yl)amino]-3-methyl-pyrazol-1-yl]-2-methyl-propanenitrile]
< 30 | Cc1nn(C(C)(C)C#N)cc1Nc1ncc(Cl)c(C2CC2)n1 [Compound A-2, 2-[4-[(5-chloro-4-cyclopropyl-pyrimidin-2-yl)amino]-3-methyl-pyrazol-1-yl]-2-methyl-propanenitrile]
< 30 | Cc1nn(S(C)(=O)=O)cc1Nc1ncc(C(F)(F)F)c(C2CC2)n1 [Compound A-7, 4-cyclopropyl-N-(3-methyl-1-methylsulfonyl-pyrazol-4-yl)-5-(trifluoromethyl)pyrimidin-2-amine]
< 30 | Cc1nn(C(C)(C)c2ncn(C)n2)cc1Nc1ncc(C(F)(F)F)c(C2CC2)n1 [Compound A-8, 4-cyclopropyl-N-(3-methyl-1-(2-(1-methyl-1H-1,2,4-triazol-3-yl)propan-2-yl)-1H-pyrazol-4-yl)-5-(trifluoromethyl)pyrimidin-2-amine]
< 30 | Cc1nn(C2COC2)cc1Nc1ncc(C(F)(F)F)c(C2CC2)n1 [Compound A-14, 4-cyclopropyl-N-[3-methyl-1-(oxetan-3-yl)pyrazol-4-yl]-5-(trifluoromethyl)pyrimidin-2-amine]
< 30 | Cc1c(Nc2ncc(C(F)(F)F)c(C3CC3)n2)cnn1C1COC1 [Compound A-15, 4-cyclopropyl-N-[5-methyl-1-(oxetan-3-yl)pyrazol-4-yl]-5-(trifluoromethyl)pyrimidin-2-amine]

Same assay, conditions: Table D-4; 5 nM LRRK2, 134 μM ATP, 60 minute reaction, 23° C.

IC50 [nM] | SMILES
< 30 | CCNc1nc(Nc2cnn(C3CCn4ccnc43)c2C)ncc1C(F)(F)F (racemic) [Compound D-22, N2-(1-(6,7-dihydro-5H-pyrrolo[1,2-a]imidazol-7-yl)-5-methyl-1H-pyrazol-4-yl)-N4-ethyl-5-(trifluoromethyl)pyrimidine-2,4-diamine]
> 60 | CNc1nc(Nc2cn(C3CCn4ccnc43)nc2C)ncc1C(F)(F)F (single isomer, unassigned) [Compound D-3, N2-[1-[6,7-dihydro-5H-pyrrolo[1,2-a]imidazol-7-yl]-3-methyl-1H-pyrazol-4-yl]-N4-methyl-5-(trifluoromethyl)pyrimidine-2,4-diamine]
< 30 | CNc1nc(Nc2cn(C3CCn4ccnc43)nc2C)ncc1C(F)(F)F (single isomer, unassigned) [Compound D-4, N2-[1-[6,7-dihydro-5H-pyrrolo[1,2-a]imidazol-7-yl]-3-methyl-1H-pyrazol-4-yl]-N4-methyl-5-(trifluoromethyl)pyrimidine-2,4-diamine]
> 60 | CCNc1nc(Nc2cn(C3CCn4ccnc43)nc2C)ncc1C(F)(F)F (single isomer, unassigned) [Compound D-23, N2-(1-(6,7-dihydro-5H-pyrrolo[1,2-a]imidazol-7-yl)-3-methyl-1H-pyrazol-4-yl)-N4-ethyl-5-(trifluoromethyl)pyrimidine-2,4-diamine]
< 30 | CCNc1nc(Nc2cn(C3CCn4ccnc43)nc2C)ncc1C(F)(F)F (single isomer, unassigned) [Compound D-24, N2-(1-(6,7-dihydro-5H-pyrrolo[1,2-a]imidazol-7-yl)-3-methyl-1H-pyrazol-4-yl)-N4-ethyl-5-(trifluoromethyl)pyrimidine-2,4-diamine]
